Measured values published in ChEMBL document CHEMBL4152218, “Novel hydrazide-hydrazone and amide substituted coumarin derivatives: Synthesis, cytotoxicity screening, microarray, radiolabeling and in vivo pharmacokinetic studies” (Eur J Med Chem, 2018).

How the values were obtained:
[1] = Selectivity index, ratio of IC50 for hTERT-BJ cells to IC50 for human CCRF-CEM cells; format: toxicity; conditions: hTERT-BJ cells versus CCRF-CEM cells, read-out: Ratio IC50
TERT-RPE1 [2] = experiment: Cytotoxicity against hTERT-RPE1 cells at 6.25 uM after 48 hrs by resazurin dye-based fluorescence assay relative to control; format: cell-based; conditions: human, tert-rpe1, 48 h
hTERT-BJ [3] = experiment: Cytotoxicity against hTERT-BJ cells at 6.25 uM after 48 hrs by resazurin dye-based fluorescence assay relative to control; format: cell-based; conditions: human
hTERT-BJ [4] = experiment: Cytotoxicity against hTERT-BJ cells at 25 uM after 48 hrs by resazurin dye-based fluorescence assay relative to control; format: cell-based; conditions: human
HepG2 [5] = experiment: Antiproliferative activity against human HepG2 cells after 48 hrs by resazurin dye-based fluorescence assay; format: functional, cell-based; conditions: HepG2, 48 h
[6] = Selectivity index, ratio of IC50 for hTERT-RPE1 cells to IC50 for human PANC1 cells; format: toxicity; conditions: hTERT-RPE1 cells versus PANC1 cells, read-out: Ratio IC50
[7] = Selectivity index, ratio of IC50 for hTERT-BJ cells to IC50 for human HepG2 cells; format: toxicity; conditions: hTERT-BJ cells versus HepG2 cells, read-out: Ratio IC50
PANC-1 [8] = experiment: Antiproliferative activity against human PANC1 cells after 48 hrs by resazurin dye-based fluorescence assay; format: functional, cell-based; conditions: PANC-1, 48 h
hTERT-BJ [9] = experiment: Cytotoxicity against hTERT-BJ cells at 12.50 uM after 48 hrs by resazurin dye-based fluorescence assay relative to control; format: cell-based; conditions: human, 12.5 µM
CCRF-CEM = experiment: Antiproliferative activity against human CCRF-CEM cells after 48 hrs by resazurin dye-based fluorescence assay; format: functional, cell-based
TERT-RPE1 [10] = experiment: Cytotoxicity against hTERT-RPE1 cells at 25 uM after 48 hrs by resazurin dye-based fluorescence assay relative to control; format: cell-based; conditions: human, tert-rpe1, 48 h
hTERT-BJ [11] = experiment: Cytotoxicity against hTERT-BJ cells at 50 uM after 48 hrs by resazurin dye-based fluorescence assay relative to control; format: cell-based; conditions: human
[12] = Selectivity index, ratio of IC50 for hTERT-BJ cells to IC50 for human PANC1 cells; format: toxicity; conditions: hTERT-BJ cells versus PANC1 cells, read-out: Ratio IC50
TERT-RPE1 [13] = experiment: Cytotoxicity against hTERT-RPE1 cells at 12.50 uM after 48 hrs by resazurin dye-based fluorescence assay relative to control; format: cell-based; conditions: human, tert-rpe1, 48 h, 12.5 µM
[14] = Selectivity index, ratio of IC50 for hTERT-RPE1 cells to IC50 for human CCRF-CEM cells; format: toxicity; conditions: hTERT-RPE1 cells versus CCRF-CEM cells, read-out: Ratio IC50
hTERT-BJ [15] = experiment: Cytotoxicity against hTERT-BJ cells after 48 hrs by resazurin dye-based fluorescence assay; format: cell-based; conditions: Homo sapiens
[16] = Selectivity index, ratio of IC50 for hTERT-RPE1 cells to IC50 for human HepG2 cells; format: toxicity; conditions: hTERT-RPE1 cells versus HepG2 cells, read-out: Ratio IC50
TERT-RPE1 [17] = experiment: Cytotoxicity against hTERT-RPE1 cells at 50 uM after 48 hrs by resazurin dye-based fluorescence assay relative to control; format: cell-based; conditions: human, tert-rpe1, 48 h
TERT-RPE1 [18] = experiment: Cytotoxicity against hTERT-RPE1 cells after 48 hrs by resazurin dye-based fluorescence assay; format: cell-based; conditions: Homo sapiens, RPE-1, 48 h
PANC-1 [19] = experiment: Induction of apoptosis in human PANC1 cells assessed as increase in caspase-3/7 activity after 24 hrs by Caspase-Glo 3/7 luminescence assay; format: functional, cell-based
HepG2 [20] = experiment: Induction of apoptosis in human HepG2 cells assessed as increase in caspase-3/7 activity after 24 hrs by Caspase-Glo 3/7 luminescence assay; format: functional, cell-based

| Compound | selectivity ratio [1] | Activity (TERT-RPE1 [2]) | Activity (hTERT-BJ [3]) | Activity (hTERT-BJ [4]) | IC50 (HepG2 [5]) | selectivity ratio [6] | selectivity ratio [7] | IC50 (PANC-1 [8]) | Activity (hTERT-BJ [9]) | IC50 (CCRF-CEM) | Activity (TERT-RPE1 [10]) | Activity (hTERT-BJ [11]) | selectivity ratio [12] | Activity (TERT-RPE1 [13]) | selectivity ratio [14] | IC50 (hTERT-BJ [15]) | selectivity ratio [16] | Activity (TERT-RPE1 [17]) | IC50 (TERT-RPE1 [18]) | further results |
| --- | --- | --- | --- | --- | --- | --- | --- | --- | --- | --- | --- | --- | --- | --- | --- | --- | --- | --- | --- | --- |
| CCOc1ccc(NC(=O)c2cc3ccc(O)cc3oc2=O)cc1 | > 3.97 | 11.23% | 10.17% | 30.03% | 17.3 µM | > 3.5 | > 2.88 | 14.3 µM | 15.98% | 12.6 µM | 19.22% | 31.23% | > 3.5 | 13.91% | > 3.97 | > 50 µM | > 2.88 | 36.28% | > 50 µM | – |
| CCOc1ccc2nc(Cl)c(/C=N/NC(=O)c3cc4cc(Br)ccc4oc3=O)cc2c1 | > 3.87 | 5.41% | 0.53% | 2.63% | 29 µM | > 2.94 | > 1.72 | 17 µM | 1.77% | 12.9 µM | 13.67% | 2.67% | > 2.94 | 12.4% | > 3.87 | > 50 µM | > 1.72 | 20.15% | > 50 µM | – |
| CCOc1ccc2nc(Cl)c(/C=N/NC(=O)c3cc4ccccc4oc3=O)cc2c1 | > 7.92 | 1.13% | 2.77% | 3.92% | 33.1 µM | > 1.67 | > 1.51 | 29.9 µM | 5.65% | 6.32 µM | 9.5% | 3.64% | > 1.67 | 1.23% | > 7.92 | > 50 µM | > 1.51 | 9.97% | > 50 µM | – |
| O=C(N/N=C/c1cccnc1)c1cc2cc(Br)ccc2oc1=O | > 13.5 | 6.64% | 0.86% | 1.7% | 19 µM | > 5.99 | > 2.63 | 8.35 µM | 0.78% | 3.71 µM | 25.4% | 2.33% | > 5.99 | 12.55% | > 13.5 | > 50 µM | > 2.63 | 34.12% | > 50 µM | – |
| CCOc1ccc(NC(=O)c2cc3ccccc3oc2=O)cc1 | > 2.79 | 7.48% | 0.59% | 2.82% | 10.4 µM | > 3.74 | > 4.83 | 13.4 µM | 2.4% | 17.9 µM | 22.19% | 3.08% | > 3.74 | 12.77% | > 2.79 | > 50 µM | > 4.83 | 23.27% | > 50 µM | – |
| CCOc1ccc2nc(Cl)c(/C=N/NC(=O)c3cc4ccc(O)cc4oc3=O)cc2c1 | > 2.92 | 3.51% | 3.67% | 2.26% | 19.2 µM | > 388 | > 2.6 | 0.129 µM | 1.47% | 17.1 µM | 8.85% | 5.63% | > 388 | 8.35% | > 2.92 | > 50 µM | > 2.6 | 13.99% | > 50 µM | – |
| CCOc1ccc(NC(=O)c2cc3cc(Br)ccc3oc2=O)cc1 | > 2.3 | 3.04% | 2.3% | 1.86% | 37 µM | > 2.97 | > 1.35 | 16.8 µM | 1.19% | 21.8 µM | 13.28% | 3.3% | > 2.97 | 9.63% | > 2.3 | > 50 µM | > 1.35 | 16.45% | > 50 µM | – |
| CCOc1ccc(NC(=O)c2cc3cc([N+](=O)[O-])ccc3oc2=O)cc1 | > 3.78 | 5.12% | 3.1% | 5.22% | 28.3 µM | > 4.13 | > 1.77 | 12.1 µM | 1.66% | 13.2 µM | 8.22% | 6.11% | > 4.13 | 6.01% | > 3.78 | > 50 µM | > 1.77 | 9.35% | > 50 µM | – |
| Cc1noc(NS(=O)(=O)c2ccc(NC(=O)c3cc4ccccc4oc3=O)cc2)c1C | > 1.88 | 9.28% | 8.49% | 15.88% | 24 µM | > 2.51 | > 2.09 | 19.9 µM | 10.4% | 26.6 µM | 33.32% | 26.66% | > 2.51 | 13.72% | > 1.88 | > 50 µM | > 2.09 | 47.61% | > 50 µM | – |
| O=C(N/N=C/c1cccnc1)c1cc2cc([N+](=O)[O-])ccc2oc1=O | > 2.92 | 1.1% | 3.59% | 3.22% | 17 µM | > 4.24 | > 2.94 | 11.8 µM | 5.49% | 17.1 µM | 10.95% | 3.99% | > 4.24 | 2.22% | > 2.92 | > 50 µM | > 2.94 | 17.11% | > 50 µM | – |
| O=C(N/N=C/c1ccncc1)c1cc2ccccc2oc1=O | > 16.1 | 0.65% | 0.6% | 3.9% | 17.2 µM | > 5.13 | > 2.91 | 9.75 µM | 1.23% | 3.11 µM | 12.2% | 1.73% | > 5.13 | 4.08% | > 16.1 | > 50 µM | > 2.91 | 13.73% | > 50 µM | – |
| Cc1noc(NS(=O)(=O)c2ccc(NC(=O)c3cc4ccc(O)cc4oc3=O)cc2)c1C | > 2.33 | 0.99% | 1.17% | 3.63% | 38.8 µM | > 3.09 | > 1.29 | 16.2 µM | 3.52% | 21.5 µM | 5.92% | 5% | > 3.09 | 5.89% | > 2.33 | > 50 µM | > 1.29 | 5.78% | > 50 µM | – |
| O=C(N/N=C/c1cccnc1)c1cc2ccccc2oc1=O | > 5.05 | 7.46% | 0.21% | 5.22% | 15.9 µM | > 3.27 | > 3.14 | 15.3 µM | 0.97% | 9.9 µM | 9.89% | 2.6% | > 3.27 | 8.28% | > 5.05 | > 50 µM | > 3.14 | 14.75% | > 50 µM | Activity (PANC-1 [19]): Dose-dependent effect; Activity (HepG2 [20]): Dose-dependent effect |
